ChEMBL document CHEMBL1201862, “PubChem BioAssay data set” (2004)
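1) Cells in 96-well plates. 2) Compound, 48 h, 5 concentrations. 3) Linear interpolation between surrounding doses. 4) Unreached endpoint = highest concentration. The concentration for 50% growth inhibition is given as GI50.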 Calls of active or inactive are those of the source. Rule as the data show it: active = GI50 up to about 1.1 µM and inactive = higher.

Tests used:
Assay in all cases: NCI anticancer screen, dose series, 48 h
HT-29 = system: HT-29
CAKI-1 = system: CAKI-1
HCT-15 = system: HCT-15
DMS-114 = system: DMS-114
SNB-75 = system: SNB-75
UACC-257 = system: UACC-257
OVCAR-8 = system: OVCAR-8
SK-MEL-2 = system: SK-MEL-2
HCT-116 = system: HCT-116
NCI/ADR-RES = system: NCI/ADR-RES
786-0 = system: 786-0
RPMI-8226 = system: RPMI-8226
DU-145 = system: DU-145
MDA-N = system: MDA-N
HOP-92 = system: HOP-92
NCI-H23 = system: NCI-H23
SF-268 = system: SF-268
NCI-H522 = system: NCI-H522
Malme-3M = system: Malme-3M
XF498 = system: XF498
OVCAR-3 = system: OVCAR-3
LXFL 529 = system: LXFL 529
UO-31 = system: UO-31
SF-295 = system: SF-295
NCI-H460 = system: NCI-H460
U-251 = system: U-251
HOP-18 = system: HOP-18
IGROV-1 = system: IGROV-1
SNB-19 = system: SNB-19
A498 = system: A498
SW-620 = system: SW-620
MOLT-4 = system: MOLT-4
LOX IMVI = system: LOX IMVI
HOP-62 = system: HOP-62
RXF 393 = system: RXF 393
ACHN = system: ACHN
SN12C = system: SN12C
HCC 2998 = system: HCC 2998
SK-MEL-5 = system: SK-MEL-5
PC-3 = system: PC-3
EKVX = system: EKVX
M19-MEL = system: M19-MEL
KM12 = system: KM12
OVCAR-5 = system: OVCAR-5
DLD-1 = system: DLD-1
Hs-578T = system: Hs-578T
KM-20L2 = system: KM-20L2
NCI-H226 = system: NCI-H226
SK-OV-3 = system: SK-OV-3
OVCAR-4 = system: OVCAR-4
TK-10 = system: TK-10
A549 = system: A549
SK-MEL-28 = system: SK-MEL-28
CCRF-CEM = system: CCRF-CEM
COLO 205 = system: COLO 205
MDA-MB-231 = system: MDA-MB-231
BT-549 = system: BT-549
MDA-MB-435 = system: MDA-MB-435
SF-539 = system: SF-539
SNB-78 = system: SNB-78
HL-60 = system: HL-60
MCF7 = system: MCF7
K562 = system: K562
UACC-62 = system: UACC-62
SR = system: SR
M14 = system: M14
DMS-273 = system: DMS-273

Measured: GI50

COc1ccc(/C=C2\CCC(CN(C)C)C2=O)cc1 (stereo unspecified)
active: RPMI-8226 0.832 µM | NCI-H522 1.1 µM | HL-60 1.02 µM
inactive: HT-29 3.5 µM | CAKI-1 2.4 µM | DMS-114 5.98 µM | SNB-75 12.4 µM | UACC-257 3.75 µM | OVCAR-8 3.24 µM | SK-MEL-2 7.87 µM | HCT-116 2.29 µM | NCI/ADR-RES 2.36 µM | 786-0 1.65 µM | DU-145 2.94 µM | MDA-N 3.44 µM | HOP-92 6.1 µM | NCI-H23 7.91 µM | SF-268 9.71 µM | Malme-3M 4.92 µM | XF498 4.21 µM | OVCAR-3 4.12 µM | LXFL 529 2.05 µM | UO-31 8.59 µM | SF-295 17.9 µM | NCI-H460 16.6 µM | U-251 18.3 µM | HOP-18 6.85 µM | IGROV-1 8.47 µM | SNB-19 10.3 µM | A498 15 µM | SW-620 1.96 µM | MOLT-4 1.83 µM | LOX IMVI 1.93 µM | HOP-62 12.2 µM | RXF 393 2.94 µM | ACHN 9.77 µM | SN12C 5.83 µM | HCC 2998 8.13 µM | SK-MEL-5 8.69 µM | PC-3 5.12 µM | EKVX 17.8 µM | M19-MEL 8.71 µM | KM12 8.26 µM | OVCAR-5 13.6 µM | DLD-1 3.62 µM | Hs-578T 3.82 µM | KM-20L2 17.1 µM | NCI-H226 16.3 µM | SK-OV-3 17.6 µM | OVCAR-4 8.34 µM | TK-10 5.98 µM | A549 12.2 µM | SK-MEL-28 5.75 µM | CCRF-CEM 2.26 µM | COLO 205 3.42 µM | MDA-MB-231 1.99 µM | BT-549 3.26 µM | MDA-MB-435 1.88 µM | SF-539 7.83 µM | SNB-78 13.6 µM | MCF7 1.95 µM | K562 1.6 µM | UACC-62 8.91 µM | SR 1.26 µM | M14 2.54 µM
2.29 µM: HCT-15

C=C1CCC2[C@@H](CCC3[C@]2(C)CCC[C@]3(C)C(=O)OC)C1CC=O (stereo partly specified)
inactive: HT-29 16.6 µM | DMS-114 17.5 µM | UACC-257 16.2 µM | OVCAR-8 19.4 µM | SK-MEL-2 18.9 µM | HCT-116 15.2 µM | DMS-273 20.9 µM | 786-0 18.1 µM | HOP-92 14.6 µM | NCI-H23 18.6 µM | SF-268 18.2 µM | Malme-3M 19.1 µM | XF498 14.1 µM | OVCAR-3 14.2 µM | LXFL 529 16 µM | NCI-H460 15.3 µM | HOP-18 15.6 µM | IGROV-1 20.2 µM | SW-620 19.1 µM | ACHN 15.9 µM | SN12C 18.2 µM | SK-MEL-5 19.6 µM | EKVX 20.1 µM | M19-MEL 18.2 µM | DLD-1 21.6 µM | KM-20L2 18.8 µM | NCI-H226 17.9 µM | OVCAR-4 17.4 µM | SK-MEL-28 16.3 µM | CCRF-CEM 14 µM | COLO 205 18.5 µM | SF-539 16.9 µM | SNB-78 17.6 µM | HL-60 15.6 µM | UACC-62 15.2 µM | M14 16.5 µM
19.9 µM: HCT-15

C=C1CCC2[C@@H](CCC3[C@]2(C)CCC[C@]3(C)C(=O)OC)[C@@H]1CC=O (stereo partly specified)
inactive: HT-29 28.1 µM | DMS-114 22 µM | UACC-257 26.5 µM | OVCAR-8 23.6 µM | SK-MEL-2 31.6 µM | HCT-116 16.7 µM | DMS-273 22.4 µM | 786-0 36.1 µM | HOP-92 20.2 µM | NCI-H23 25.8 µM | SF-268 34.6 µM | Malme-3M 28.8 µM | XF498 19.9 µM | OVCAR-3 20.5 µM | LXFL 529 31.9 µM | NCI-H460 20 µM | HOP-18 24.8 µM | IGROV-1 35.8 µM | SW-620 17.6 µM | ACHN 27.2 µM | SN12C 30.3 µM | HCC 2998 61.7 µM | SK-MEL-5 17 µM | EKVX 35.1 µM | M19-MEL 22.4 µM | DLD-1 33.6 µM | KM-20L2 27 µM | NCI-H226 27.7 µM | OVCAR-4 27.6 µM | SK-MEL-28 27.7 µM | CCRF-CEM 22.4 µM | COLO 205 36.9 µM | SF-539 17.9 µM | SNB-78 34.4 µM | HL-60 23.5 µM | UACC-62 24.6 µM | M14 19.4 µM
29.5 µM: HCT-15
